According to patent US20260364184A1, “COMPOUND BASED ON OXOISOINDOLINYL-SUBSTITUTED TETRAHYDROPYRIMIDINE-DIONE AND USE THEREOF” (GLUETACS THERAPEUTICS (SHANGHAI) CO., LTD., priority 2023, published 2026):

molecular target: T1, IRAK4 (Homo sapiens, UniProt Q9NWZ3); experiment: Western blot degradation of IRAK4; assay type: cell-based; conditions: hPBMC Cell; 24 hours
T1 construct: expression of target proteins in cells; endogenous in cells
T1 sequence (Q9NWZ3 1-460): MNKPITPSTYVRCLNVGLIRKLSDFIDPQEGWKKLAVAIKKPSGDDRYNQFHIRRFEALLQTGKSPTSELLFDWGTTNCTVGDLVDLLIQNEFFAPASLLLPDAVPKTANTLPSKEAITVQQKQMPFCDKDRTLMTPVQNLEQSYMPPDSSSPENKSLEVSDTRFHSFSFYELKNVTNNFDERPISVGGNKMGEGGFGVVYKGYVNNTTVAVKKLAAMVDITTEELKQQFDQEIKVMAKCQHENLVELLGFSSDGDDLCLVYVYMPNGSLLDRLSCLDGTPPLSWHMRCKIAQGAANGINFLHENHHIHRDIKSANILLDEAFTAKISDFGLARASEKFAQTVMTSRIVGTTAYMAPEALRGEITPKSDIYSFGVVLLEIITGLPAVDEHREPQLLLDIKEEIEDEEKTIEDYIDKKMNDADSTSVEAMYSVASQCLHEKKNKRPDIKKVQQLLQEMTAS
Method: Conventional Western blot assay was performed to evaluate the effects of the compounds of the present disclosure on the expression of target proteins in cells.
(1) Cell Seeding and Protein Harvesting: The selected cells were processed according to the cell seeding procedure and protein harvesting procedure in Table II-2.
(2) To the collected supernatant, 5×SDS sample loading buffer was added, followed by denaturation at 95 °C for 5 minutes. The denatured samples were then separated by SDS-PAGE electrophoresis on a polyacrylamide gel. Proteins were transferred to a nitrocellulose membrane (0.45 μm NC membrane), blocked with blocking buffer at room temperature for 1 hour, and subjected to antibody incubation and development procedures according to the antibody manufacturer's instructions (Cell Signaling Technology).
Half-Maximal Degradation Concentration value (the drug concentration required for degrading proteins by 50%, abbreviated as DC50) reads method: comparing the grayscale values of Western blot bands from drug-treated samples with those from blank DMSO-treated controls, and identifying the drug concentration range at which the grayscale value is half that of the DMSO-treated control bands.
DC50 values can be calculated using ImageJ software to measure grayscale values of Western blot bands from drug-treated samples. The concentration-response curve is fitted to estimate the drug concentration corresponding to half the grayscale value.
Target protein remaining (%) refers to the percentage of target protein remaining in cells after treatment with protein degrader compounds.
Calculation method for target protein remaining (%): Use ImageJ software to measure grayscale values of Western blot bands from drug (protein degrader)-treated samples. The grayscale value of drug-treated bands is divided by that of internal control protein bands, and the resulting quotient is normalized to obtain the relative percentage of remaining target protein after protein degrader treatment.
Target protein degradation rate (%)=1−target protein remaining (%).

| Compound | Degradation of substrate protein IRAK4 (substrate protein remaining %) |
| --- | --- |
| O=C1CCN(N2C(=O)c3ccc(N4CCC(N5CCC(CN6CCC(n7cc(NC(=O)c8coc(-c9ccnc(NCC%10CC%10)c9)n8)c(C(F)F)n7)CC6)CC5)CC4)cc3C2=O)C(=O)N1 [GT-05133, 2-(2-((cyclopropylmethyl)amino)pyridin-4-yl)-N-(3-(difluoromethyl)-1-(1-((1′-(2-(2,4-dioxotetrahydropyrimidin-1(2H)-yl)-1,3-dioxoisoindolin-5-yl)-[1,4′-bipiperidin]-4-yl)methyl)piperidin-4-yl)-1H-pyrazol-4-yl) oxazole-4-carboxamide] | A (0%≤substrate protein remaining %≤80%) |
| O=C1CCN(N2C(=O)c3ccc(N4C5CCC4CN(C[C@H]4CC[C@H](n6cc(NC(=O)c7cnn8ccc(N9C[C@H]%10C[C@@H]9CO%10)nc78)c(C(F)F)n6)CC4)C5)cc3C2=O)C(=O)N1 [GT-05240, 5-((1R,4R)-2-oxa-5-azabicyclo[2.2.1]heptan-5-yl)-N-(3-(difluoromethyl)-1-((1r,4R)-4-((8-(2-(2,4-dioxotetrahydropyrimidin-1(2H)-yl)-1,3-dioxoisoindolin-5-yl)-3,8-diazabicyclo[3.2.1]octan-3-yl)methyl)cyclohexyl)-1H-pyrazol-4-yl)pyrazolo[1,5-a]pyrimidine-3-carboxamide] | A (0%≤substrate protein remaining %≤80%) |
| COc1cc2nn(C3CCN(CC4CCN(c5cccc6c5C(=O)N(N5CCC(=O)NC5=O)C6=O)CC4)CC3)cc2cc1NC(=O)c1cccc(C(F)(F)F)c1 [GT-05815, N-(2-(1-((1-(2-(2,4-dioxotetrahydropyrimidin-1(2H)-yl)-1,3-dioxoisoindolin-4-yl)piperidin-4-yl)methyl)piperidin-4-yl)-6-methoxy-2H-indazol-5-yl)-3-(trifluoromethyl)benzamide] | A (0%≤substrate protein remaining %≤80%) |
| COc1cc2nn([C@H]3CC[C@H](CN4CCN(c5ccc6c(c5F)C(=O)N(N5CCC(=O)NC5=O)C6=O)CC4)CC3)cc2cc1NC(=O)c1cccc(C(F)(F)F)n1 [GT-08656, N-(2-((1r,4r)-4-((4-(2-(2,4-dioxotetrahydropyrimidin-1(2H)-yl)-4-fluoro-1,3-dioxoisoindolin-5-yl)piperazin-1-yl)methyl)cyclohexyl)-6-methoxy-2H-indazol-5-yl)-6-(trifluoromethyl) picolinamide] | A (0%≤substrate protein remaining %≤80%) |
| CC(C)Nc1cc(-n2ccc3cc(C#N)cnc32)ncc1C(=O)NC1CCN(CC2CCN(c3cccc4c3C(=O)N(N3CCC(=O)NC3=O)C4=O)CC2)CC1 [GT-05814, 6-(5-cyano-1H-pyrrolo[2,3-b]pyridin-1-yl)-N-(1-((1-(2-(2,4-dioxotetrahydropyrimidin-1(2H)-yl)-1,3-dioxoisoindolin-4-yl)piperidin-4-yl)methyl)piperidin-4-yl)-4-(isopropylamino) nicotinamide] | A (0%≤substrate protein remaining %≤80%) |
| O=C1CCN(N2C(=O)c3ccc(N4CCC(N5CCN(C[C@H]6CC[C@H](n7cc(NC(=O)c8cnn9ccc(N%10C[C@H]%11C[C@@H]%10CO%11)nc89)c(C(F)F)n7)CC6)CC5)CC4)cc3C2=O)C(=O)N1 [GT-05122, 5-((1R,4R)-2-oxa-5-azabicyclo[2.2.1]heptan-5-yl)-N-(3-(difluoromethyl)-1-((1r,4R)-4-((4-(1-(2-(2,4-dioxotetrahydropyrimidin-1(2H)-yl)-1,3-dioxoisoindolin-5-yl)piperidin-4-yl)piperazin-1-yl)methyl)cyclohexyl)-1H-pyrazol-4-yl)pyrazolo[1,5-a]pyrimidine-3-carboxamide] | A (0%≤substrate protein remaining %≤80%) |
| COc1ccc2cn(C3CCN(Cc4ccc5c(c4)CN(N4CCC(=O)NC4=O)C5=O)CC3)nc2c1NC(=O)c1cccc(C(F)(F)F)c1 [GT-04884, N-(2-(1-((2-(2,4-dioxotetrahydropyrimidin-1(2H)-yl)-1-oxoisoindolin-5-yl)methyl)piperidin-4-yl)-6-methoxy-2H-indazol-7-yl)-3-(trifluoromethyl)benzamide] | A (0%≤substrate protein remaining %≤80%) |
| COc1cc2nn(C3CCN(Cc4ccc5c(c4)CN(N4CCC(=O)NC4=O)C5=O)CC3)cc2cc1NC(=O)c1cccc(C(F)(F)F)c1 [GT-04876, N-(2-(1-((2-(2,4-dioxotetrahydropyrimidin-1(2H)-yl)-1-oxoisoindolin-5-yl)methyl)piperidin-4-yl)-6-methoxy-2H-indazol-5-yl)-3-(trifluoromethyl)benzamide] | A (0%≤substrate protein remaining %≤80%) |
| COc1ccc2cn(C3CCN(CC4CCN(c5ccc6c(c5)C(=O)N(N5CCC(=O)NC5=O)C6=O)CC4)CC3)nc2c1NC(=O)c1cccc(C(F)(F)F)c1 [GT-04885, N-(2-(1-((1-(2-(2,4-dioxotetrahydropyrimidin-1(2H)-yl)-1,3-dioxoisoindolin-5-yl)piperidin-4-yl)methyl)piperidin-4-yl)-6-methoxy-2H-indazol-7-yl)-3-(trifluoromethyl)benzamide] | A (0%≤substrate protein remaining %≤80%) |
| COc1cc2nn([C@H]3CC[C@H](CN4CCN(C5CCN(c6ccc7c(c6)C(=O)N(N6CCC(=O)NC6=O)C7=O)CC5)CC4)CC3)cc2cc1NC(=O)c1cccc(C(F)(F)F)n1 [GT-08658, N-(2-((1r,4r)-4-((4-(1-(2-(2,4-dioxotetrahydropyrimidin-1(2H)-yl)-1,3-dioxoisoindolin-5-yl)piperidin-4-yl)piperazin-1-yl)methyl)cyclohexyl)-6-methoxy-2H-indazol-5-yl)-6-(trifluoromethyl) picolinamide] | A (0%≤substrate protein remaining %≤80%) |

Continued, values first:

| Degradation of substrate protein IRAK4 (substrate protein remaining %) | Compound |
| --- | --- |
| A (0%≤substrate protein remaining %≤80%) | CC(C)(O)c1cc2nn(C3CCN(CC4CCN(C5CCN(c6ccc7c(c6)C(=O)N(N6CCC(=O)NC6=O)C7=O)CC5)CC4)CC3)cc2cc1NC(=O)c1cccc(C(F)(F)F)n1 [GT-05290, N-(2-(1-((1′-(2-(2,4-dioxotetrahydropyrimidin-1(2H)-yl)-1,3-dioxoisoindolin-5-yl)-[1,4′-bipiperidin]-4-yl)methyl)piperidin-4-yl)-6-(2-hydroxypropan-2-yl)-2H-indazol-5-yl)-6-(trifluoromethyl) picolinamide] |
| A (0%≤substrate protein remaining %≤80%) | COc1cc2nn([C@H]3CC[C@H](CN4C5CC4CN(c4ccc6c(c4)C(=O)N(N4CCC(=O)NC4=O)C6=O)C5)CC3)cc2cc1NC(=O)c1cccc(C(F)(F)F)c1 [GT-08666, N-(2-((1r,4r)-4-((3-(2-(2,4-dioxotetrahydropyrimidin-1(2H)-yl)-1,3-dioxoisoindolin-5-yl)-3,6-diazabicyclo[3.1.1]heptan-6-yl)methyl)cyclohexyl)-6-methoxy-2H-indazol-5-yl)-3-(trifluoromethyl)benzamide] |
| A (0%≤substrate protein remaining %≤80%) | CC(C)(O)c1cc2nn(C3CCN(CC4CCN(c5ccc6c(c5)C(=O)N(N5CCC(=O)NC5=O)C6=O)CC4)CC3)cc2cc1NC(=O)c1cccc(C(F)(F)F)n1 [GT-05220, N-(2-(1-((1-(2-(2,4-dioxotetrahydropyrimidin-1(2H)-yl)-1,3-dioxoisoindolin-5-yl)piperidin-4-yl)methyl)piperidin-4-yl)-6-(2-hydroxypropan-2-yl)-2H-indazol-5-yl)-6-(trifluoromethyl) picolinamide] |
| A (0%≤substrate protein remaining %≤80%) | O=C1CCN(N2C(=O)c3ccc(N4CCC(N5CCC(CN6CCC(n7cc(NC(=O)c8coc(-c9ccnc(NCC(F)(F)F)c9)n8)c(C(F)F)n7)CC6)CC5)CC4)cc3C2=O)C(=O)N1 [GT-05144, N-(3-(difluoromethyl)-1-(1-((1′-(2-(2,4-dioxotetrahydropyrimidin-1(2H)-yl)-1,3-dioxoisoindolin-5-yl)-[1,4′-bipiperidin]-4-yl)methyl)piperidin-4-yl)-1H-pyrazol-4-yl)-2-(2-((2,2,2-trifluoroethyl)amino)pyridin-4-yl) oxazole-4-carboxamide] |
